Measurements published in patent US8637536B2, “Pyrimidinone compounds for use in the treatment of diseases or conditions mediated by Lp-PLA2” (Glaxo Group Limited, priority 2010, dated 2014).
Counter-ions that a name gives are not always drawn.

biological target: T1, Lp-PLA2 from plasma (pooled human plasma) (Homo sapiens, UniProt Q13093); assay: Lp-PLA2 human plasma assay (Thio-PAF assay); type: biochemical; settings: text thresholds, read-out: pIC50 values in the thio-PAF assay (converted)
T1 construct: 8 μL pooled human plasma; from tissue; host or cells: pooled human plasma
T1 sequence (Q13093 22-441): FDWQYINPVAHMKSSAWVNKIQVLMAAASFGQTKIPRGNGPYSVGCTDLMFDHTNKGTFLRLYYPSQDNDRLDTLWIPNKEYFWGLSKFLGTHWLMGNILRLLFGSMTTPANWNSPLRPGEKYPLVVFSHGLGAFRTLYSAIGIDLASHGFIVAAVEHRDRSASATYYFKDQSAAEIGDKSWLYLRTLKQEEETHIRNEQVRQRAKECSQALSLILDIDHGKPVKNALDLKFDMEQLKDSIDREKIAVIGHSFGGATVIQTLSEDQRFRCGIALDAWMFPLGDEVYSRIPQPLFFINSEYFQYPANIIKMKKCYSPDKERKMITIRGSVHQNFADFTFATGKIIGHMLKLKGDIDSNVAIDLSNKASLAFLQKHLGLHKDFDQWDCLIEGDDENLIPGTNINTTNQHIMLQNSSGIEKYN
Text: (3) Lipoprotein-Associated Phospholipase A2 (Lp-PLA2) Human Plasma Assay (Also Referred to as “Thio-PAF Assay”)
The human plasma assay utilizes a thioester analog of PAF (phosphatidylcholine), where hydrolysis yields to the formation of a phospholipid containing a free thiol group. The amount of thiol is quantitated continuously by reacting with CPM (7-diethylamino-3-(4′-maleimidylphenyl)-4-methylcoumarin), a maleimide which increases in fluoresence after Michael addition of thiols. This assay may detect the activity of Lp-PLA2 from plasma, as determined by specific inhibition by Lp-PLA2 inhibitors.
The thio-PAF assay was run as a quenched 15 μL assay. Compounds source plate was prepared by making 1:3 (by volume) serial dilution of the compounds into pure DMSO on 384-well microplate. 0.01 μL of compounds on compound source plate were transferred to 384 well Greiner 784076 (black) low-volume plates by ECHO liquid dispenser. 8 μL pooled human plasma, which was previously aliquoted and frozen, was added. Plates were centrifuged for 10 sec at 500 rpm. After 30 minutes preincubation, 2 μL of substrate (2.5 mM thio-PAF, 3.2 mM NEM (N-ethylmaleimide) [made fresh daily in DMSO], and 32 μM CPM [from a DMSO stock] in assay buffer of 50 mM HEPES, pH7.4, 150 mM NaCl, 1 mM CHAPS was added to 384 well Greiner 784076 (black) low-volume plates by BRAVO liquid handling station. Plates were centrifuged for 10 sec at 500 rpm. Plate was covered to protect from light and incubated for 2 min at room temperature. Reaction was quenched with 5 μL of 5% aqueous trifluoroacetic acid (TFA). Plates were covered to protect from light and incubated for 40 min at room temperature. Plates were read at ex: 380/em: 485 using-Envision microplate reader. PIC50 data, curve and QC analysis was conducted by using XLFit module in Excel.

Compound	IC50
COc1ncc(Cc2c[nH]c(NCCc3ccc(Oc4cccc(C(F)(F)F)c4)cc3)nc2=O)cn1 [E193, 5-(2-methoxy-pyrimidin-5-ylmethyl)-2-{2-[4-(3-trifluoromethyl-phenoxy)phenyl]-ethylamino}-1H-pyrimidin-4-one]	≤ 1000 nM
Cc1ncc(Cc2c[nH]c(NCCc3ccc(Oc4ccc(C(F)(F)F)c(Cl)c4)cc3)nc2=O)cn1 [E207, 2-{2-[4-(3-chloro-4-trifluoromethyl-phenoxy)-phenyl]ethylamino}-5-(2-methyl-pyrimidin-5-ylmethyl)-1H-pyrimidin-4-one]	≤ 1000 nM
Cn1cc(Cc2cncnc2)c(=O)nc1SCc1ccc(Oc2ccc(C(F)(F)F)cn2)c(C#N)c1 [E105, 5-({[1-methyl-4-oxo-5-(5-pyrimidinylmethyl)-1,4-dihydro-2-pyrimidinyl]thio}methyl)-2-{[5-(trifluoromethyl)-2-pyridinyl]oxy}benzonitrile]	≤ 100 nM
O=c1nc(NCCc2ccc(Oc3cccc(C(F)(F)F)c3)cc2)[nH]cc1Cc1cncnc1 [E185, 5-Pyrimidin-5-ylmethyl-2-{2-[4-(3-trifluoromethyl-phenoxy)-phenyl]-ethylamino}-1H-pyrimidin-4-one]	≤ 1000 nM
CN(CCc1ccc(Oc2cccc(C(F)(F)F)c2)cc1)c1nc(=O)c(Cc2cncnc2)c[nH]1 [E187, 2-(Methyl-{2-[4-(3-trifluoromethyl-phenoxy)-phenyl]-ethyl}-amino)-5-pyrimidin-5-ylmethyl-1H-pyrimidin-4-one]	≤ 1000 nM
O=c1nc(NCCc2ccc(Oc3ccc(Cl)cc3)cc2)[nH]cc1Cc1cncnc1 [E194, 2-{2-[4-(4-Chloro-phenoxy)-phenyl]-ethylamino}-5-pyrimidin-5-ylmethyl-1H-pyrimidin-4-one]	≤ 1000 nM
Cc1ncc(Cc2c[nH]c(NCCc3ccc(Oc4ccc(C(F)(F)F)cn4)cc3)nc2=O)cn1 [E208, 5-(2-methyl-pyrimidin-5-ylmethyl)-2-{2-[4-(5-trifluoromethyl-pyridin-2-yloxy)phenyl]ethylamino}-1H-pyrimidin-4-one]	≤ 1000 nM
COc1ncc(Cc2c[nH]c(OCCc3ccc(Oc4ccc(C)c(F)c4)cc3)nc2=O)cn1 [E157, 2-[(2-{4-[(3-fluoro-4-methylphenyl)oxy]phenyl}ethyl)oxy]-5-{[2-(methyloxy)-5-pyrimidinyl]methyl}-4(1H)-pyrimidinone]	≤ 1000 nM
N#Cc1cc(CSc2nc(=O)c(Cc3cncnc3)c[nH]2)ccc1Oc1ccc(C(F)(F)F)cn1 [E73, 5-({[4-oxo-5-(5-pyrimidinylmethyl)-1,4-dihydro-2-pyrimidinyl]thiol}methyl)-2-{[5-(trifluoromethyl)-2-pyridinyl]oxy}benzonitrile]	≤ 100 nM
O=c1nc(OCCc2cc(F)c(Oc3cnc(C(F)(F)F)nc3)c(F)c2)[nH]cc1Cc1cncnc1 [E168]	≤ 100 nM
COc1ncc(Cc2c[nH]c(OCCc3cc(F)c(Oc4cnc(C(F)(F)F)nc4)c(F)c3)nc2=O)cn1 [E169, 2-(3,5-difluoro-4-((2-(trifluoromethyl)pyrimidin-5-yl)oxy)phenethoxy)-5-((2-methoxypyrimidin-5-yl)methyl)pyrimidin-4(1H)-one]	≤ 100 nM
COc1ncc(Cc2c[nH]c(OCCc3ccc(Oc4cc(Cl)cc(C(F)(F)F)c4)cc3)nc2=O)cn1 [E165, 2-{[2-(4-{[3-chloro-5-(trifluoromethyl)phenyl]oxy}phenyl)ethyl]oxy}-5-{[2-(methyloxy)-5-pyrimidinyl]methyl}-4(1H)-pyrimidinone]	≤ 100 nM

The next lines start with the values.

IC50	Compound
≤ 100 nM	COc1ncc(Cc2c[nH]c(OCCc3ccc(Oc4cnc(C(F)(F)F)nc4)c(F)c3)nc2=O)cn1 [E167, 2-(3-fluoro-4-((2-(trifluoromethyl)pyrimidin-5-yl)oxy)phenethoxy)-5-((2-methoxypyrimidin-5-yl)methyl)pyrimidin-4(1H)-one]
≤ 1000 nM	O=c1nc(OCCc2ccc(Oc3ccc(Cl)c(C(F)(F)F)c3)cc2)[nH]cc1Cc1cnc(C(F)(F)F)nc1 [E126, 2-{[2-(4-{[4-chloro-3-(trifluoromethyl)phenyl]oxy}phenyl)ethyl]oxy}-5-{[2-(trifluoromethyl)-5-pyrimidinyl]methyl}-4(1H)-pyrimidinone]
≤ 100 nM	CCc1cn(C)c(OCCc2ccc(Oc3ccc(Cl)c(C(F)(F)F)c3)c(F)c2)nc1=O [E174, 2-{[2-(4-{[4-chloro-3-(trifluoromethyl)phenyl]oxy}-3-fluorophenyl)ethyl]oxy}-5-ethyl-1-methyl-4(1H)-pyrimidinone]
≤ 100 nM	CCc1cn(C)c(OCCc2cc(F)c(Oc3ccc(Cl)c(C(F)(F)F)c3)c(F)c2)nc1=O [E175, 2-{[2-(4-{[4-chloro-3-(trifluoromethyl)phenyl]oxy}-3,5-difluorophenyl)ethyl]oxy}-5-ethyl-1-methyl-4(1H)-pyrimidinone]
≤ 100 nM	COc1ncc(Cc2c[nH]c(OCCc3ccc(Oc4ccc(Cl)c(OC(F)(F)F)c4)cc3)nc2=O)cn1 [E178, 2-(4-(4-chloro-3-(trifluoromethoxy)phenoxy)phenethoxy)-5-((2-methoxypyrimidin-5-yl)methyl)pyrimidin-4(1H)-one]
≤ 1000 nM	Cn1cc(Cc2cncnc2)c(=O)nc1CCc1ccc(Oc2ccc(Cl)c(C(F)(F)F)c2)cc1 [E4, 2-[2-(4-{[4-Chloro-3-(trifluoromethyl)phenyl]oxy}phenyl)ethyl]-1-methyl-5-(5-pyrimidinylmethyl)-4(1H)-pyrimidinone]
≤ 100 nM	COc1ncc(Cc2c[nH]c(OCCc3cc(F)c(Oc4ccc(Cl)c(C(F)(F)F)c4)c(F)c3)nc2=O)cn1 [E176, 2-{[2-(4-{[4-chloro-3-(trifluoromethyl)phenyl]oxy}-3,5-difluorophenyl)ethyl]oxy}-5-{[2-(methyloxy)-5-pyrimidinyl]methyl}-4(1H)-pyrimidinone]
≤ 100 nM	Cn1cc(Cc2cn(C)c(SCCc3ccc(Oc4cccc(C(F)(F)F)c4)c(C#N)c3)nc2=O)cn1 [E92, 5-[2-({1-methyl-5-[(1-methyl-1H-pyrazol-4-yl)methyl]-4-oxo-1,4-dihydro-2-pyrimidinyl}thio)ethyl]-2-{[3-(trifluoromethyl)phenyl]oxy}benzonitrile, trifluoroacetic acid salt]
≤ 100 nM	O=c1nc(OCCc2ccc(Oc3ccc(Cl)c(OC(F)(F)F)c3)cc2)[nH]cc1Cc1cncnc1 [E177, 2-(4-(4-chloro-3-(trifluoromethoxy)phenoxy)phenethoxy)-5-(pyrimidin-5-ylmethyl)pyrimidin-4(1H)-one]
≤ 100 nM	Cn1cc(Cc2cn(C)c(SCCc3ccc(Oc4ccc(Cl)c(C(F)(F)F)c4)cc3)nc2=O)cn1 [E113, 2-{[2-(4-{[4-chloro-3-(trifluoromethyl)phenyl]oxy}phenyl)ethyl]thio}-1-methyl-5-[(1-methyl-1H-pyrazol-4-yl)methyl]-4(1H)-pyrimidinone]
≤ 1000 nM	COc1ncc(Cc2cn(C)c(CCc3ccc(Oc4ccc(Cl)c(C(F)(F)F)c4)cc3)nc2=O)cn1 [E3, 2-[2-(4-{[4-Chloro-3-(trifluoromethyl)phenyl]oxy}phenyl)ethyl]-1-methyl-5-{[2-(methyloxy)-5-pyrimidinyl]methyl}-4(1H)-pyrimidinone]
≤ 1000 nM	O=c1ncc(Cc2c[nH]c(NCCc3ccc(Oc4ccc(Cl)c(C(F)(F)F)c4)cc3)nc2=O)c[nH]1 [E209, 2-{2-[4-(4-chloro-3-trifluoromethyl-phenoxy)-phenyl]ethylamino}-5-(2-oxo-1,2-dihydro-pyrimidin-5-ylmethyl)-1H-pyrimidin-4-one]
